Assay results published in patent publication US4673747A, “Aminoalkylphenoxy derivatives” (Ikeda Mohando Co., Ltd., priority 1984, dated 1987).
Where two headings read alike, the source gives them in different places.

Columns and labels:
[1] = tested on: Gastric acid secretion induced by histamine; assay: Inhibition effect on gastric acid secretion induced by histamine in pylorus ligated rat (subcutaneous); assay type: in vivo, rat (male Wistar); settings: read-out: Secretion of Gastric Acid in Rat, Inhibition Rate (%)
Experimental: A male Wistar rat having a body weight of about 160 g and which had not fed for 24 hours was anesthetized by an intraperitonea dose of 1.2 g/kg of uretane. After ligating of pylorus and esophagus, the gaster anterior was incised and fitted with a double polyethylene cannula. The wall of the stomach was rinsed with 5 ml of saline at 30 minute intervals, and the quantities of gastric acid contained in each rinsing solution were measured by titration.
The basal acid secretion was initially measured three times, and then 0.2 mg/kg or 0.5 mg/kg of each of the compounds of this invention was administered subcutaneously and 3 mg/kg of histamine was administered subcutaneously after the lapse of an additional 30 minutes.
The quantity of gastric acid secreated after the operation was measured continuously for 3 hours. Within that measurement interval, three time points at which the increase in acid secretion reached a maximum level were selected, and the average quantity of gastric acid secreted at those time points was taken as the increase in acid secretion, which was compared with the increase in acid secretion of the control group to calculate the percent inhibition for secretion of gastric acid. [formula] (The result was shown as the average value of five runs.)

[2] = target: T1, Histamine H2-Receptor (Cavia porcellus, UniProt P47747); parameters: species or system guinea pig (male Hartley); settings: isolated guinea pig atrium; negative logarithm of molar concentration; heart beats, histamine dose-response; read-out: Antagonistic Action against Histamine H2-Receptor (pA2) Determined by Using Atrium isolated from Guinea Pig (converted)
T1 construct: from tissue; host or cells: isolated atrium of male Hartley guinea pig
Experimental: A male Hartley guinea pig having a body weight of about 400 g was killed by cervical dislocation, and the artrium thereof was isolated and was suspended in an organ bath containing 50 ml of a modified Ringer solution and subjected to a tension of 1 g. The number of heart beats under such condition was recorded using a polygraph.
Initially, from 1×10^-7 mol to 3×10^-4 mol of histamine was allowed to act accumulatively to depict the curve of the dosage-reaction relationship. Likewise, the curve of the dosage of histamine-reaction relationship was depicted in the presence of 5×10^-7 mol to 1×10^-6 mol of the test sample which was injected 3 minutes before. The negative logarithm (pA2) of the molar concentration of the test sample required for moving the curve obtained by single administration of histamine parallel to the right side by a two-times concentration was calculated.

[3] = tested on: Gastric acid secretion induced by histamine; assay: Inhibitory effect of intraduodenally administered compounds on gastric acid secretion induced by histamine in rat; assay type: in vivo, rat (male Wistar); settings: for ED50: 0.5 h, read-out: Median effective dose (ED50), Gastric Acid Secretion; for Efficacy Ratio relative to Cimetidine (Cimetidine = 1): from ED50; for ED50 value: times as effective as Cimetidine (activity ratio): text discussing Table 2
[4] = Acute toxicity test on mice dosed orally; parameters: species or system mouse (male ddy); settings: mouse, in vivo, po, P.O., 14 days observation, read-out: Median lethal dose (LD50)
Experimental: Male ddy mice each having a body weight of about 22 g and which had not eaten for 8 hours were orally dosed with the test samples, and the general symptoms and fatalities were observed from the time immediately following the administration to 14 days after the administration.
The median lethal dose (LD50) was calculated in accordance with the Litchfield and Wilcoxon Method.

[5] = 0.5 mg/kg SC, histamine 3 mg/kg SC, average of five runs, * p<0.05, ** p<0.01 vs control group
[6] = intraduodenal, 30 minutes before SC histamine, rat

T1 sequence (P47747 whole entry): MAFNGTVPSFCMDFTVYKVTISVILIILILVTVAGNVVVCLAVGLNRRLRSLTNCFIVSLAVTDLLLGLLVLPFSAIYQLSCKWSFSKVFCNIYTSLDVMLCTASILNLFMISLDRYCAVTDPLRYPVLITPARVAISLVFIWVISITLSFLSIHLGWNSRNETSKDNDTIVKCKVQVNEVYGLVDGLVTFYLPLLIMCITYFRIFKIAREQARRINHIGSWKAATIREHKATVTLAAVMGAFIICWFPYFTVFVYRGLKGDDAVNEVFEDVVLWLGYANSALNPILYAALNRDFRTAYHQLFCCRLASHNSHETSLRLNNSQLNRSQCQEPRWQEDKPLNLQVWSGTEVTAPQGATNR

Row | Structure (SMILES) | inhibition in vivo at 0.5 mg/kg [1, 5] [%] | Kb [2] [nM] | ED50 [3, 6] [mg/kg] | Efficacy Ratio relative to Cimetidine (Cimetidine = 1) ([3]; intraduodenal, rat) | ED50 value: times as effective as Cimetidine (activity ratio) ([3]; intraduodenal, rat) | LD50 at 336 h [4] [mg/kg] | inhibition in vivo at 0.5 mg/kg ([1]; sc) [%] | ED50 ([3]; Rattus norvegicus) [mg/kg] | inhibition in vivo at 0.2 mg/kg ([1]; 0.2 mg/kg SC, histamine 3 mg/kg SC, average of five runs, * p<0.05, ** p<0.01 vs control group) [%]
1 | Nc1c(NC/C=C\COc2cccc(CN3CCCCC3)c2)c(=O)c1=O [Ex. 2, 1-amino-2-[4-<3-(1-piperidinomethyl)phenoxy>-cis-2-butenylamino]-1-cyclobuten-3,4-dione] | 98 | 63.1 | 0.046 | 156.5 | about 157 times | > 1500 | – | – | –
2 | CNc1c(NC/C=C\COc2cccc(CN3CCCCC3)c2)c(=O)c1=O [Ex. 3, 1-methylamino-2-[4-<3-(1-piperidinomethyl)phenoxy>-cis-2-butenylamino]-cyclobuten-3,4-dione] | 79 | 309 | 0.036 | 200.0 | ~200 times | > 1500 | – | – | –
3 | CNc1n[nH]c(=O)nc1NC/C=C\COc1cccc(CN2CCCCC2)c1 [Ex. 10, 6-methylamino-5-[4-<3-(1-piperidinomethyl)phenoxy>-cis-2-butenylamino]-1,2,4-triazin-3-one] | 103 | 219 | 8 | 0.9 | – | > 1500 | – | – | –
4 | Nc1cc(NC/C=C\COc2cccc(CN3CCCCC3)c2)nc(=O)[nH]1 [Ex. 13, 4-amino-6-[4-<3-(1-piperidinomethyl)phenoxy>-cis-2-butenylamino]-(1H)-pyrimidin-2-one] | 91 | 83.2 | 0.52 | 13.8 | – | > 1500 | – | – | –
5 | CN/C(=N/CCSCc1nc[nH]c1C)NC#N [Cimetidine, reference compound] | – | – | – | – | – | 3300 | 41 | 7.2 | –
6 | Nc1nnc(NC/C=C\COc2cccc(CN3CCCCC3)c2)s1 [Ex. 27, 2-amino-5-[4-<3-(1-piperidinomethyl)-phenoxy>-cis-2-butenylamino]-1,3,4-thiadiazole] | – | 490 | 0.45 | 16.0 | – | – | – | – | 87
7 | Nc1n[nH]c(=O)nc1NC/C=C\COc1cccc(CN2CCCCC2)c1 [Ex. 9, 6-amino-5-[4-<3-(1-piperidinomethyl)phenoxy>-cis-2-butenylamino]-1,2,4-triazin-3-one] | 96 | 186 | – | – | – | 1200 | – | – | –
8 | CNc1n[s+]([O-])nc1NC/C=C\COc1cccc(CN2CCCCC2)c1 (stereo not drawn) [Ex. 16, 3-methylamino-4-[4-<3-(1-piperidinomethyl)phenoxy>-cis-2-butenylamino]-1,2,5-thiadiazole-1-oxide] | 98 | 2400 | 0.04 | 180.0 | ~180 times | > 1500 | – | – | –
